Data published in PubChem BioAssay AID2060501 (Molecular Pharmacology Branch, DTP, NCI, 2025).
pIC50: −log10 of the molar value.

Test system: 282377-053-R-J1-PDC complex spheroids, viability
Assay: Anticancer human tumor 282377-053-R-J1-PDC patient-derived colon adenocarcinoma cell line growth inhibition [GQUAD]
Conditions: for pIC50: curve of first compound; for viability, T/C: stronger effect = lower value; active = viability on the fitted dose curve at most 10% of control; inactive = the rest
Description: DNA G-quadruplex Stabilizer Agents in Combinations in Complex Spheroids
A high-throughput screen of multi-cell type tumor spheroids was designed to identify active combinations of DNA G-quadruplex stabilizer agents and targeted small molecules. Complex spheroids include a stromal component modeled by human endothelial cells (HUVEC) and fibroblasts modeled by human mesenchymal stem cells (MSCs). The concentration ranges selected for each drug and investigational agent were based upon clinically achievable concentrations if the clinical Cmax of the agent was known.
Compounds. The drugs and investigational agents: pidnarulex (CX-5461; NSC782164), APTO-253 (NSC789042), BRACO-19 (NSC847499), peposertib (NSC802822), ceralasertib (NSC780249), elimusertib (NSC800525), camonsertib (NSC841442), AZD-1390 (NSC803789), olaparib (NSC753686), talazoparib (NSC767125), ART-558 (NSC835418), sotorasib (NSC818433), MRTX-1133 (NSC836407), SN-38 (NSC673596), topotecan (NSC609699), etoposide (NSC141540), doxorubicin (NSC123127), gemcitabine (NSC613327), 5-fluorouracil (NSC19893), paclitaxel (NSC125973), vemurafenib (NSC761431), panobinostat (NSC761190), R-306465 (JNJ-16241199; NSC773264), adavosertib (NSC754352), TP-3654 (NSC805149), carboplatin (NSC241240), KSQ-4279 (NSC840948), and staurosporine (NSC755774) were obtained from the National Cancer Institute (NCI) Developmental Therapeutics Program Chemical Repository (34). The FDA-approved anticancer drug set is available from the NCI Developmental Therapeutics Program. […] The stock solutions were prepared in dimethyl sulfoxide (DMSO, Sigma-Aldrich, St. Louis, MO, cat. D2650) at 800-fold the tested concentration and stored at -70 degrees C prior to their use. All drugs and investigational agents were tested over a range starting from a high concentration at or near the clinical Cmax and decreasing in half-log increments. If the clinical Cmax for an agent had not been determined, the highest concentration tested was 10 microM.
2.3 Cell Culture. All cells were maintained in an incubator at 37 degrees C and 5% CO2 with 95% humidity. The PDC lines were cultured according to standard operating procedures established by the NCI PDMR. All PDCs were thawed and cultured in Matrigel-coated flasks prepared with a working solution of 1X Ham's F-12 nutrient mix, without supplementation (Invitrogen, cat. 11765054), 100 U/mL penicillin-streptomycin (Invitrogen, cat. 15140122), and 2.5% Matrigel (Corning Inc., cat. 354248) for the first three passages. The 857933-349-R-J2-PDC line was cultured in 6C/Colon 1B media, which includes advanced DMEM/F-12 (Thermo Fisher Scientific, cat. 12634028), 10 mM HEPES (Thermo Fisher Scientific, cat. 15630080), 1X GlutaMAX supplement (Thermo Fisher Scientific, cat. 35050061), 0.1 mg/mL primocin (InvivoGen, cat. ant-pm-2), 10% defined fetal bovine serum, heat inactivated (HyClone Laboratories Inc., cat. SH30070.03HI), 50% L-WRN conditioned media (ATCC, cat. CRL-3276), 1.25 mM N-Acetyl-L-cysteine (Sigma-Aldrich, cat. A9165), 10 mM nicotinamide (Sigma-Aldrich, cat. N0636), 1X B-27 supplement (Thermo Fisher Scientific, cat. 17504044), 1X N-2 supplement (Thermo Fisher Scientific, cat. 17502048), 10 microM Y-27632 dihydrochloride (Tocris Bioscience, cat. 1254), and 50 ng/mL human EGF recombinant protein (Thermo Fisher Scientific, cat. PHG0311). The 485176-168-R4-J1-PDC line was cultured in Panc media, which includes all 6C/Colon 1B media components plus 100 ng/mL human FGF-10 (Thermo Fisher Scientific, cat. 100-26), 500 nM SB-431542 (Selleckchem, cat. S1067), and gastrin (Tocris, cat. 3006).
[…]

[1] = second compound 0.0316 µM, first compound 0.0316 µM
[2] = second compound 0.0316 µM, first compound 0.1 µM
[3] = second compound 0.0316 µM, first compound 0.316 µM
[4] = second compound 0.0316 µM, first compound 1 µM
[5] = second compound 0.0316 µM, first compound 3.16 µM
[6] = second compound 0.0316 µM, first compound 10 µM
[7] = second compound 0.1 µM, first compound 0.0316 µM
[8] = second compound 0.1 µM, first compound 0.1 µM
[9] = second compound 0.1 µM, first compound 0.316 µM
[10] = second compound 0.1 µM, first compound 1 µM
[11] = second compound 0.1 µM, first compound 3.16 µM
[12] = second compound 0.1 µM, first compound 10 µM
[13] = second compound 0.316 µM, first compound 0.0316 µM
[14] = second compound 0.316 µM, first compound 0.1 µM
[15] = second compound 0.316 µM, first compound 0.316 µM
[16] = second compound 0.316 µM, first compound 1 µM
[17] = second compound 0.316 µM, first compound 3.16 µM
[18] = second compound 0.316 µM, first compound 10 µM
[19] = second compound 1 µM, first compound 0.0316 µM
[20] = second compound 1 µM, first compound 0.1 µM
[21] = second compound 1 µM, first compound 0.316 µM
[22] = second compound 1 µM, first compound 1 µM
[23] = second compound 1 µM, first compound 3.16 µM
[24] = second compound 1 µM, first compound 10 µM
[25] = second compound 3.16 µM, first compound 0.0316 µM
[26] = second compound 3.16 µM, first compound 0.1 µM
[27] = second compound 3.16 µM, first compound 0.316 µM
[28] = second compound 3.16 µM, first compound 1 µM
[29] = second compound 3.16 µM, first compound 3.16 µM
[30] = second compound 3.16 µM, first compound 10 µM
[31] = second compound 10 µM, first compound 0.0316 µM
[32] = second compound 10 µM, first compound 0.1 µM
[33] = second compound 10 µM, first compound 0.316 µM
[34] = second compound 10 µM, first compound 1 µM
[35] = second compound 10 µM, first compound 3.16 µM
[36] = second compound 10 µM, first compound 10 µM
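Note: spheroids exposed to compounds for 7 days before readout.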
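Throughout, for viability, T/C: percent of vehicle DMSO control viability with 100% = untreated-like growth.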

C#Cc1c(F)ccc2cc(O)cc(-c3ncc4c(N5CC6CCC(C5)N6)nc(OCC56CCCN5CC(F)C6)nc4c3F)c12 (centres undefined) + Cc1[nH]c2ccc(F)cc2c1-c1nc2c3cccnc3c3ncccc3c2[nH]1
7.44: pIC50 (second compound 3.16 µM)
> 7.50: pIC50 (second compound 10 µM)
active: viability, T/C [23] 6.79% | viability, T/C [24] 6.81% | viability, T/C [28] 3.57% | viability, T/C [29] 1.91% | viability, T/C [30] 1.84% | viability, T/C [33] 14.7% | viability, T/C [34] 2.45% | viability, T/C [35] 1.52% | viability, T/C [36] 1.43%
inactive: viability, T/C [1] 108% | viability, T/C [2] 95.5% | viability, T/C [3] 82.2% | viability, T/C [4] 83.2% | viability, T/C [5] 20.6% | viability, T/C [6] 26% | viability, T/C [7] 104% | viability, T/C [8] 114% | viability, T/C [9] 98.3% | viability, T/C [10] 59.6% | viability, T/C [11] 13.2% | viability, T/C [12] 22.9% | viability, T/C [13] 96.9% | viability, T/C [14] 102% | viability, T/C [15] 90.4% | viability, T/C [16] 64.4% | viability, T/C [17] 9.13% | viability, T/C [18] 13.3% | viability, T/C [19] 105% | viability, T/C [20] 110% | viability, T/C [21] 102% | viability, T/C [22] 39.5% | viability, T/C [25] 52.7% | viability, T/C [26] 28.4% | viability, T/C [27] 15.7% | viability, T/C [31] 34.4% | viability, T/C [32] 15.4%
5.72: pIC50 (second compound 0.0316 µM)
6.08: pIC50 (second compound 1 µM)
5.89: pIC50 (second compound 0.1 µM)
5.86: pIC50 (second compound 0.316 µM)

CC(C)(O)C1CCC(Nc2ccc3ncc(-c4cccc(C(F)(F)F)c4)n3n2)CC1 (centres undefined) + Cc1[nH]c2ccc(F)cc2c1-c1nc2c3cccnc3c3ncccc3c2[nH]1
5.54: pIC50 (second compound 10 µM)
< 5.00: pIC50 (second compound 0.0316 µM) | pIC50 (second compound 0.1 µM) | pIC50 (second compound 0.316 µM) | pIC50 (second compound 1 µM) | pIC50 (second compound 3.16 µM)
inactive: viability, T/C [1] 107% | viability, T/C [2] 95.9% | viability, T/C [3] 114% | viability, T/C [4] 103% | viability, T/C [5] 86.1% | viability, T/C [6] 76.9% | viability, T/C [7] 122% | viability, T/C [8] 103% | viability, T/C [9] 91.5% | viability, T/C [10] 95.3% | viability, T/C [11] 103% | viability, T/C [12] 73.3% | viability, T/C [13] 107% | viability, T/C [14] 96.7% | viability, T/C [15] 87.7% | viability, T/C [16] 95.1% | viability, T/C [17] 103% | viability, T/C [18] 91.9% | viability, T/C [19] 115% | viability, T/C [20] 95.8% | viability, T/C [21] 88.8% | viability, T/C [22] 118% | viability, T/C [23] 81.4% | viability, T/C [24] 92.3% | viability, T/C [25] 88.8% | viability, T/C [26] 71.1% | viability, T/C [27] 70.7% | viability, T/C [28] 79.2% | viability, T/C [29] 100% | viability, T/C [30] 63.1% | viability, T/C [31] 61.9% | viability, T/C [32] 51.5% | viability, T/C [33] 75.6% | viability, T/C [34] 48.4% | viability, T/C [35] 46.9% | viability, T/C [36] 42.7%
